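Compound exposure: 48 hours, 5 concentrations, 96-well plates. TGI marks complete inhibition of growth.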
Assays:
Assay in all cases: NCI-60 cell line screen, 48 h
[1] = system: NCI-H226 lung
[2] = system: COLO 205 colon
[3] = system: HL-60(TB) leukemia
[4] = system: SF-539 CNS
[5] = system: NCI-H522 lung
[6] = system: IGROV1 ovarian
[7] = system: CAKI-1 renal
[8] = system: OVCAR-4 ovarian
[9] = system: OVCAR-5 ovarian
[10] = system: MDA-N
[11] = system: 786-0 renal
[12] = system: LOX IMVI melanoma
[13] = system: SK-OV-3 ovarian
[14] = system: MALME-3M melanoma
[15] = system: MDA-MB-435
[16] = system: NCI-H23 lung
[17] = system: EKVX NSCLC
[18] = system: K-562 leukemia
[19] = system: OVCAR-3 ovarian
[20] = system: CCRF-CEM leukemia
[21] = system: SK-MEL-28 melanoma
[22] = system: MDA-MB-231 breast
[23] = system: NCI/ADR-RES ovarian
[24] = system: UACC-62 melanoma
[25] = system: A549 NSCLC
[26] = system: SW-620 colon
[27] = system: MCF7 breast
[28] = system: HOP-62 NSCLC
[29] = system: UACC-257 melanoma
[30] = system: U251 CNS
[31] = system: M14 melanoma
[32] = system: OVCAR-8 ovarian
[33] = system: HT29 colon
[34] = system: NCI-H460 lung
[35] = system: HOP-92 NSCLC
[36] = system: A498 renal
[37] = system: SF-268 CNS
[38] = system: HCT-116 colon
[39] = system: SR leukemia
[40] = system: MOLT-4 leukemia
[41] = system: HCT-15 colon
[42] = system: RXF 393 renal
[43] = system: HS 578T breast
[44] = system: DU-145 prostate
[45] = system: SF-295 CNS
[46] = system: TK-10 renal
[47] = system: HCC-2998 colon
[48] = system: SNB-19 CNS
[49] = system: SNB-75 CNS
[50] = system: KM12 colon
[51] = system: T-47D breast
[52] = system: SN12C renal
[53] = system: ACHN renal
[54] = system: PC-3 prostate
[55] = system: SK-MEL-5 melanoma
[56] = system: RPMI-8226 leukemia
[57] = system: UO-31 renal
[58] = system: SK-MEL-2 melanoma

SMILES: CCOC(=O)c1c(SC(=O)C(C)(C)Oc2ccc(Cl)cc2)n(-c2ccccc2)c(=S)n(-c2ccccc2)c1=O
- TGI [1]: > 100 µM
- TGI [2]: 39.3 µM
- TGI [3]: > 100 µM
- TGI [4]: 41.7 µM
- TGI [5]: 84.3 µM
- TGI [6]: 36 µM
- TGI [7]: > 100 µM
- TGI [8]: > 100 µM
- TGI [9]: > 100 µM
- TGI [10]: > 100 µM
- TGI [11]: > 100 µM
- TGI [12]: > 100 µM
- TGI [13]: > 100 µM
- TGI [14]: 72.7 µM
- TGI [15]: > 100 µM
- TGI [16]: > 100 µM
- TGI [17]: > 100 µM
- TGI [18]: > 100 µM
- TGI [19]: > 100 µM
- TGI [20]: 75.5 µM
- TGI [21]: > 100 µM
- TGI [22]: 47.9 µM
- TGI [23]: > 100 µM
- TGI [24]: > 100 µM
- TGI [25]: 65.3 µM
- TGI [26]: 55.2 µM
- TGI [27]: 57.2 µM
- TGI [28]: 60.1 µM
- TGI [29]: > 100 µM
- TGI [30]: 41 µM
- TGI [31]: > 100 µM
- TGI [32]: 42.1 µM
- TGI [33]: 66.4 µM
- TGI [34]: 52.8 µM
- TGI [35]: > 100 µM
- TGI [36]: 98.9 µM
- TGI [37]: 43.9 µM
- TGI [38]: 49 µM
- TGI [39]: 52.3 µM
- TGI [40]: 58 µM
- TGI [41]: > 100 µM
- TGI [42]: 73.4 µM
- TGI [43]: > 100 µM
- TGI [44]: > 100 µM
- TGI [45]: > 100 µM
- TGI [46]: > 100 µM
- TGI [47]: > 100 µM
- TGI [48]: > 100 µM
- TGI [49]: > 100 µM
- TGI [50]: 50 µM
- TGI [51]: > 100 µM
- TGI [52]: 67.8 µM
- TGI [53]: 44.4 µM

SMILES: CC(=O)c1c2c(cc3c1CC1(Cc4cc5c(cc4C1)CCCC5)C3)CCCC2
- TGI [1]: > 100 µM
- TGI [2]: > 100 µM
- TGI [3]: 31.4 µM
- TGI [4]: > 100 µM
- TGI [5]: > 100 µM
- TGI [6]: > 100 µM
- TGI [8]: > 100 µM
- TGI [9]: > 100 µM
- TGI [10]: 56.5 µM
- TGI [11]: > 100 µM
- TGI [54]: > 100 µM
- TGI [12]: > 100 µM
- TGI [13]: > 100 µM
- TGI [14]: > 100 µM
- TGI [15]: 53.1 µM
- TGI [55]: 22.3 µM
- TGI [56]: 81.8 µM
- TGI [16]: > 100 µM
- TGI [17]: > 100 µM
- TGI [18]: 29.4 µM
- TGI [57]: > 100 µM
- TGI [19]: > 100 µM
- TGI [22]: > 100 µM
- TGI [23]: > 100 µM
- TGI [24]: > 100 µM
- TGI [25]: > 100 µM
- TGI [27]: 56.9 µM
- TGI [28]: > 100 µM
- TGI [29]: 55.7 µM
- TGI [58]: 51.3 µM
- TGI [30]: > 100 µM
- TGI [31]: > 100 µM
- TGI [32]: > 100 µM
- TGI [33]: > 100 µM
- TGI [35]: > 100 µM
- TGI [36]: > 100 µM
- TGI [38]: > 100 µM
- TGI [39]: 17.5 µM
- TGI [40]: 38.5 µM
- TGI [41]: > 100 µM
- TGI [42]: > 100 µM
- TGI [43]: > 100 µM
- TGI [45]: > 100 µM
- TGI [46]: > 100 µM
- TGI [47]: > 100 µM
- TGI [49]: 72.2 µM
- TGI [50]: > 100 µM
- TGI [51]: > 100 µM
- TGI [52]: > 100 µM
- TGI [53]: 38.8 µM

SMILES: CC(C)(C)C(=O)C(C(=O)c1ccccc1)C(=O)C(C)(C)C
- TGI [1]: > 100 µM
- TGI [2]: > 100 µM
- TGI [3]: > 100 µM
- TGI [4]: > 100 µM
- TGI [5]: > 100 µM
- TGI [6]: > 100 µM
- TGI [7]: > 100 µM
- TGI [8]: > 100 µM
- TGI [9]: > 100 µM
- TGI [10]: > 100 µM
- TGI [11]: > 100 µM
- TGI [54]: > 100 µM
- TGI [12]: > 100 µM
- TGI [13]: > 100 µM
- TGI [14]: > 100 µM
- TGI [15]: > 100 µM
- TGI [55]: > 100 µM
- TGI [56]: > 100 µM
- TGI [16]: > 100 µM
- TGI [17]: > 100 µM
- TGI [18]: > 100 µM
- TGI [57]: > 100 µM
- TGI [19]: > 100 µM
- TGI [20]: > 100 µM
- TGI [21]: > 100 µM
- TGI [22]: > 100 µM
- TGI [23]: > 100 µM
- TGI [25]: > 100 µM
- TGI [26]: > 100 µM
- TGI [27]: > 100 µM
- TGI [28]: > 100 µM
- TGI [29]: > 100 µM
- TGI [58]: > 100 µM
- TGI [30]: > 100 µM
- TGI [31]: > 100 µM
- TGI [32]: > 100 µM
- TGI [33]: > 100 µM
- TGI [34]: > 100 µM
- TGI [35]: > 100 µM
- TGI [36]: > 100 µM
- TGI [37]: > 100 µM
- TGI [38]: > 100 µM
- TGI [40]: > 100 µM
- TGI [41]: > 100 µM
- TGI [42]: > 100 µM
- TGI [43]: > 100 µM
- TGI [44]: > 100 µM
- TGI [45]: > 100 µM
- TGI [46]: > 100 µM
- TGI [47]: > 100 µM
- TGI [48]: > 100 µM
- TGI [49]: > 100 µM
- TGI [50]: > 100 µM
- TGI [51]: > 100 µM
- TGI [52]: > 100 µM
- TGI [53]: > 100 µM

Source: PubChem BioAssay (NCI)
